Results taken from patent publication US20140274684A1, “Compounds, Compositions, and Methods for Altering Behavior of Insects Or Other Organisms” (BAYER CROPSCIENCE LP, priority 2013, published 2014).

System: honeybees
Experiment: honeybee repulsion experiment at feeding stations with 50% sucrose
Type: in vivo
Conditions: 2% by weight in 50% sucrose
Experimental: FIG. 1 describes the feeding station arrangement (A and B) for the honeybee repulsion experiments described herein. As set forth in FIG. 1, panel (A) sets forth the bee cage positions on the left portion of panel (A) with the randomized feeding station positions on the right portion of panel (A). Panel (B) sets forth an alignment of the randomized feeding station positions with a distance of two meters between feeding stations. A total of eight feeding stations were evaluated at a ten meter distance in front of the respective bee hives. The feeding stations were placed two meters apart from one another.
Honeybees were trained to deep feeders (eight positions), each containing a 50% sucrose solution for one day. After the honeybees were trained to each feeder, the 50% sucrose feeder at randomized positions 1-8 was replaced with a shallow feeder containing a combination of repelling compounds and a 50% sucrose solution according to Table 5. In accordance with FIGS. 5 and 6, 2% by weight of Camphor oil (T4), Ajowan oil (T5), Camphor powder (T6), Rosemary oil (T7), and 2-Decanone (T8) in combination with a 50% sucrose treatment were added to feeders on day two.
Table 5 describes active agents evaluated for bee repulsion and their randomized feeding station positions. As described in Table 5, T1 (control), T2 (control), T3 (control), T4 (Camphor oil), T5 (Ajowan oil), T6 (Camphor powder), T7 (Rosemary oil), and T8 (2-Decanone).
FIG. 5 evaluates the number of bees visiting a respective feed station over a time interval. FIG. 6 sets forth the mean number of honeybees visiting feeding station over a period of four hours.

## CCCCCCCCC(C)=O [2-Decanone, 2-decanone]
at/after 24 hours
  repellency to honeybees visiting feeding station: exhibited repellency
at/after 24 hours, listed as 2-decanone
  repellency to honeybees visiting feeding station: still repellent
Full 4 hour assessment period
  repellency to honeybees visiting feeding station: highly repellent
